Measured values reported in US12187740B2, “Polymorphic forms of bictegravir potassium” (HONOUR LAB LIMITED, priority 2021, dated 2025).

Test: Storage stability test of crystalline Form HN1 (PXRD, HPLC purity, Karl Fischer water content)
Type: physicochemical
Set-up: Water: unit not given here
Details: for Purity: HPLC; for Water: Karl Fischer
Method: X-ray powder diffraction spectrum was measured on a BRUKER axs D8 advance X-ray powder diffractometer having a copper-Ka radiation. Approximately 1 gm of sample was gently flattered on a sample holder and scanned from 2 to 50 degrees two-theta, at 0.02 degrees two theta per step and a step time of 10.8 seconds. The sample was simply placed on the sample holder. The sample was rotated at 30 rpm at a voltage 40 KV and current […].
In another aspect of the present invention Bictegravir potassium crystalline Form HN1 is stable at 5±3° C. and 25±2° C./60±5% RH (Relative humidity) and has the following stability data:
The stability of samples was tested by PXRD, HPLC and water content was measured by Karl Fischer method.

[1] = storage 25 ± 2° C./RH 60 ± 5%, 1st month
[2] = storage 25 ± 2° C./RH 60 ± 5%, 3rd month
[3] = storage 25 ± 2° C./RH 60 ± 5%, 6th month
[4] = storage 25 ± 2° C./RH 60 ± 5%, Initial
[5] = at 5±3° C. and 25±2° C./60±5% RH

O=C(NCc1c(F)cc(F)cc1F)c1cn2c(c([O-])c1=O)C(=O)N1[C@H]3CC[C@H](C3)O[C@@H]1C2.[K+] [Form HN1, Bictegravir potassium]
Purity (storage 5 ± 3° C., 1st month): 99.87
Purity (storage 5 ± 3° C., 3rd month): 99.81
Purity (storage 5 ± 3° C., 6th month): 99.81
Purity (storage 5 ± 3° C., Initial): 99.88
Purity [1]: 99.87
Purity [2]: 99.80
Purity [3]: 99.81
Purity [4]: 99.88
Water (storage 5 ± 3° C., 1st month): 2.8
Water (storage 5 ± 3° C., 3rd month): 2.8
Water (storage 5 ± 3° C., 6th month): 2.8
Water (storage 5 ± 3° C., Initial): 2.2
Water [1]: 2.8
Water [2]: 2.9
Water [3]: 2.8
Water [4]: 2.2
change in PXRD pattern after storage [5]: no change
change in water content after storage [5]: no change
decrease in purity after storage [5]: no significant decrease
stability on storage (overall) [5]: physically and chemically stable
PXRD (storage 5 ± 3° C., 1st month): Form HN1
PXRD (storage 5 ± 3° C., 3rd month): Form HN1
PXRD (storage 5 ± 3° C., 6th month): Form HN1
PXRD (storage 5 ± 3° C., Initial): Form HN1
PXRD [1]: Form HN1
PXRD [2]: Form HN1
PXRD [3]: Form HN1
PXRD [4]: Form HN1
